{"source": "patent US8614068B2", "about": "“Process for producing hepcidin” (Hellenic Pasteur Institute, priority 2007, dated 2013)", "test_system": "TfR1", "test": "Western blot of TfR1 expression in macrophages", "format": "cell-based, murine", "description": "A, RAW 264.7 macrophages were treated with 11 μM and 10 μM of synthetic hepcidin-25 (having the sequence of SEQ ID NO. 2) and Hep-25His (having the sequence of SEQ ID NO. 6) for 4 h at 37° C. or with PBS as negative control. Cell lysates were subjected to 8% SDS PAGE and Western Blot with antibodies against TfR1, Ferroportin and actin as loading control. B, The signal density of ferroportin, TfR1 and actin protein bands from two independent experiments were quantified by densitometry and their intensity relative to actin was calculated. […] Hep25-His, negative peptide and PBS was incubated with Raw 264.7 macrophages, followed by cross-linking with DSS. Cell lysates were incubated with Ni2-NTA and eluates were analyzed by Western blot using anti-FPN1 Ab. […] HEK293-Fpn cells were induced with ponasterone for 24 h and then treated with Hep25-His or synthetic hepcidin 25 (s. Hep25) for 3 h. Fluorescence was visualized with a Leica TCS confocal microscope.\nWestern blotting—1×10^6 cells (RAW 264.7, THP-1 or J774) were plated in […] plates and after 12-20 h cells were treated with hepcidins in serum-free DMEM for 4 h, at 37° C. Afterwards, cells were re-suspended in lysis buffer (1% Triton, 25 mM Hepes pH 7.4, 150 mM NaCl, 10% Glycerol, 5 mM EDTA, 0.5 mM PMSF, protein inhibitors (Roche, Mannheim, Germany) and quantified by Bradford assay (Biorad, Hercules, Calif.). 30 μg of cell lysate was analyzed on 8% SDS-PAGE. Proteins were transferred to Hybond C nitrocellulose membrane (Amersham Biosciences, Piscataway, N.J.) and the membranes were incubated with the primary antibodies rabbit anti-ferroportin (Alpha Diagnostics, San Antonio, Tex.), mouse anti-TfR1 (Zymed, Invitrogen, Carlsbad, Calif.) and mouse anti-β actin (Santa Cruz Biotech, Santa Cruz, Calif.), in a dilution of 1:1000, overnight at 4° C. […] Specific signal was detected with a chemiluminescence assay kit (ECL, Amersham Biosciences, Piscataway, N.J.). The bands were quantified by densitometry using the Quantity-One (Biorad, Hercules, Calif.) software. […]"}
{"substance": "hepcidin-25His [Hep-25His]", "values": [{"measurement": "reduction of TfR1 in comparison to untreated cells", "setting": "RAW 264.7, 10 μM, 4 h at 37° C.", "value": "48%±17.7"}, {"measurement": "decrease in TfR1 expression", "setting": "RAW 264.7 macrophages", "value": "~50", "unit": "%"}]}
